{"source": "paper PMC5515969", "about": "“Effects of 31 FDA approved small-molecule kinase inhibitors on isolated rat liver mitochondria” (Archives of Toxicology, 2016)"}
{"system": "isolated rat liver mitochondria", "test": "Mitochondrial ROS production (CM-H2DCFDA)", "details": "1XCmax; DMSO treated samples set as 1"}
{"smiles": "COc1cc2c(Nc3ccc(Br)cc3F)ncnc2cc1OCC1CCN(C)CC1", "note": "[Vandetanib]", "ROS measured by CM-H2DCFDA at 1XCmax": 0}
{"smiles": "CCCS(=O)(=O)Nc1ccc(F)c(C(=O)c2c[nH]c3ncc(-c4ccc(Cl)cc4)cc23)c1F", "note": "[Vemurafenib]", "ROS measured by CM-H2DCFDA at 1XCmax": 0}
{"smiles": "CN(C)C/C=C/C(=O)Nc1cc2c(Nc3ccc(F)c(Cl)c3)ncnc2cc1O[C@H]1CCOC1", "note": "[afatinib dimaleate]", "ROS measured by CM-H2DCFDA at 1XCmax": 0}
{"system": "isolated rat liver mitochondria", "test": "Mitochondrial ROS production (CM-H2DCFDA)", "details": "2.5XCmax; DMSO treated samples set as 1"}
{"smiles": "COc1cc2c(Nc3ccc(Br)cc3F)ncnc2cc1OCC1CCN(C)CC1", "note": "[Vandetanib]", "ROS measured by CM-H2DCFDA at 2.5XCmax": 0}
{"smiles": "CCCS(=O)(=O)Nc1ccc(F)c(C(=O)c2c[nH]c3ncc(-c4ccc(Cl)cc4)cc23)c1F", "note": "[Vemurafenib]", "ROS measured by CM-H2DCFDA at 2.5XCmax": 0}
{"smiles": "CN(C)C/C=C/C(=O)Nc1cc2c(Nc3ccc(F)c(Cl)c3)ncnc2cc1O[C@H]1CCOC1", "note": "[afatinib dimaleate]", "ROS measured by CM-H2DCFDA at 2.5XCmax": 0}
{"system": "isolated rat liver mitochondria", "test": "Mitochondrial ROS production (CM-H2DCFDA)", "details": "5XCmax; DMSO treated samples set as 1"}
{"smiles": "COc1cc2c(Nc3ccc(Br)cc3F)ncnc2cc1OCC1CCN(C)CC1", "note": "[Vandetanib]", "ROS measured by CM-H2DCFDA at 5XCmax": 0}
{"smiles": "CCCS(=O)(=O)Nc1ccc(F)c(C(=O)c2c[nH]c3ncc(-c4ccc(Cl)cc4)cc23)c1F", "note": "[Vemurafenib]", "ROS measured by CM-H2DCFDA at 5XCmax": 0}
{"smiles": "CN(C)C/C=C/C(=O)Nc1cc2c(Nc3ccc(F)c(Cl)c3)ncnc2cc1O[C@H]1CCOC1", "note": "[afatinib dimaleate]", "ROS measured by CM-H2DCFDA at 5XCmax": 0}
{"system": "isolated rat liver mitochondria", "test": "Mitochondrial ROS production (CM-H2DCFDA)", "details": "10XCmax; DMSO treated samples set as 1"}
{"smiles": "COc1cc2c(Nc3ccc(Br)cc3F)ncnc2cc1OCC1CCN(C)CC1", "note": "[Vandetanib]", "ROS measured by CM-H2DCFDA at 10XCmax": 0}
{"smiles": "CCCS(=O)(=O)Nc1ccc(F)c(C(=O)c2c[nH]c3ncc(-c4ccc(Cl)cc4)cc23)c1F", "note": "[Vemurafenib]", "ROS measured by CM-H2DCFDA at 10XCmax": 0}
{"smiles": "CN(C)C/C=C/C(=O)Nc1cc2c(Nc3ccc(F)c(Cl)c3)ncnc2cc1O[C@H]1CCOC1", "note": "[afatinib dimaleate]", "ROS measured by CM-H2DCFDA at 10XCmax": 0}
{"system": "isolated rat liver mitochondria", "test": "Mitochondrial ROS production (CM-H2DCFDA)", "details": "20XCmax; DMSO treated samples set as 1"}
{"smiles": "COc1cc2c(Nc3ccc(Br)cc3F)ncnc2cc1OCC1CCN(C)CC1", "note": "[Vandetanib]", "ROS measured by CM-H2DCFDA at 20XCmax": 0}
{"smiles": "CCCS(=O)(=O)Nc1ccc(F)c(C(=O)c2c[nH]c3ncc(-c4ccc(Cl)cc4)cc23)c1F", "note": "[Vemurafenib]", "ROS measured by CM-H2DCFDA at 20XCmax": 0}
{"smiles": "CN(C)C/C=C/C(=O)Nc1cc2c(Nc3ccc(F)c(Cl)c3)ncnc2cc1O[C@H]1CCOC1", "note": "[afatinib dimaleate]", "ROS measured by CM-H2DCFDA at 20XCmax": 0}
{"system": "isolated rat liver mitochondria", "test": "Mitochondrial ROS production (CM-H2DCFDA)", "details": "30XCmax; DMSO treated samples set as 1"}
{"smiles": "COc1cc2c(Nc3ccc(Br)cc3F)ncnc2cc1OCC1CCN(C)CC1", "note": "[Vandetanib]", "ROS measured by CM-H2DCFDA at 30XCmax": 0}
{"smiles": "CCCS(=O)(=O)Nc1ccc(F)c(C(=O)c2c[nH]c3ncc(-c4ccc(Cl)cc4)cc23)c1F", "note": "[Vemurafenib]", "ROS measured by CM-H2DCFDA at 30XCmax": 0}
{"smiles": "CN(C)C/C=C/C(=O)Nc1cc2c(Nc3ccc(F)c(Cl)c3)ncnc2cc1O[C@H]1CCOC1", "note": "[afatinib dimaleate]", "ROS measured by CM-H2DCFDA at 30XCmax": 0}
{"system": "isolated rat liver mitochondria", "test": "Mitochondrial ROS production (CM-H2DCFDA)", "details": "50XCmax; DMSO treated samples set as 1"}
{"smiles": "COc1cc2c(Nc3ccc(Br)cc3F)ncnc2cc1OCC1CCN(C)CC1", "note": "[Vandetanib]", "ROS measured by CM-H2DCFDA at 50XCmax": 0}
{"smiles": "CCCS(=O)(=O)Nc1ccc(F)c(C(=O)c2c[nH]c3ncc(-c4ccc(Cl)cc4)cc23)c1F", "note": "[Vemurafenib]", "ROS measured by CM-H2DCFDA at 50XCmax": 0}
{"smiles": "CN(C)C/C=C/C(=O)Nc1cc2c(Nc3ccc(F)c(Cl)c3)ncnc2cc1O[C@H]1CCOC1", "note": "[afatinib dimaleate]", "ROS measured by CM-H2DCFDA at 50XCmax": 0}
{"system": "isolated rat liver mitochondria", "test": "Mitochondrial ROS production (CM-H2DCFDA)", "details": "100XCmax; DMSO treated samples set as 1"}
{"smiles": "COc1cc2c(Nc3ccc(Br)cc3F)ncnc2cc1OCC1CCN(C)CC1", "note": "[Vandetanib]", "ROS measured by CM-H2DCFDA at 100XCmax": 0}
{"smiles": "CCCS(=O)(=O)Nc1ccc(F)c(C(=O)c2c[nH]c3ncc(-c4ccc(Cl)cc4)cc23)c1F", "note": "[Vemurafenib]", "ROS measured by CM-H2DCFDA at 100XCmax": 0}
{"smiles": "CN(C)C/C=C/C(=O)Nc1cc2c(Nc3ccc(F)c(Cl)c3)ncnc2cc1O[C@H]1CCOC1", "note": "[afatinib dimaleate]", "ROS measured by CM-H2DCFDA at 100XCmax": 0}
{"system": "not given", "test": "not given", "parameters": "method as in product labeling", "details": "BBW: black box warning; W&P: Warnings and Precautions; ref product labeling; cited from earlier work"}
{"smiles": "COc1cc2c(Nc3ccc(Br)cc3F)ncnc2cc1OCC1CCN(C)CC1", "note": "[Vandetanib]", "Labeling for cardiotoxicity": "BBW"}
{"smiles": "CCCS(=O)(=O)Nc1ccc(F)c(C(=O)c2c[nH]c3ncc(-c4ccc(Cl)cc4)cc23)c1F", "note": "[Vemurafenib]", "Labeling for cardiotoxicity": "W&P: QT Prolongation"}
{"system": "not given", "test": "not given", "parameters": "method as in product labeling", "details": "ref product labeling; cited from earlier work"}
{"smiles": "COc1cc2c(Nc3ccc(Br)cc3F)ncnc2cc1OCC1CCN(C)CC1", "note": "[Vandetanib]", "Potential for cardiotoxicity (based on labeling)": 1}
{"smiles": "CCCS(=O)(=O)Nc1ccc(F)c(C(=O)c2c[nH]c3ncc(-c4ccc(Cl)cc4)cc23)c1F", "note": "[Vemurafenib]", "Potential for cardiotoxicity (based on labeling)": 1}
{"system": "not given", "test": "not given", "details": "ref product labeling; cited from earlier work", "remark": "another data set of the same source"}
{"smiles": "CN(C)C/C=C/C(=O)Nc1cc2c(Nc3ccc(F)c(Cl)c3)ncnc2cc1O[C@H]1CCOC1", "note": "[afatinib dimaleate]", "Potential for cardiotoxicity (based on labeling)": 0}
{"system": "isolated rat liver mitochondria", "test": "not given", "details": "1XCmax; positive control alamethicin treated samples"}
{"smiles": "COc1cc2c(Nc3ccc(Br)cc3F)ncnc2cc1OCC1CCN(C)CC1", "note": "[Vandetanib]", "Cytochrome c release 1XCmax": 0}
{"smiles": "CCCS(=O)(=O)Nc1ccc(F)c(C(=O)c2c[nH]c3ncc(-c4ccc(Cl)cc4)cc23)c1F", "note": "[Vemurafenib]", "Cytochrome c release 1XCmax": 0}
{"smiles": "CN(C)C/C=C/C(=O)Nc1cc2c(Nc3ccc(F)c(Cl)c3)ncnc2cc1O[C@H]1CCOC1", "note": "[afatinib dimaleate]", "Cytochrome c release 1XCmax": 0}
{"system": "isolated rat liver mitochondria", "test": "not given", "details": "2.5XCmax; positive control alamethicin treated samples"}
{"smiles": "COc1cc2c(Nc3ccc(Br)cc3F)ncnc2cc1OCC1CCN(C)CC1", "note": "[Vandetanib]", "Cytochrome c release 2.5XCmax": 0}
{"smiles": "CCCS(=O)(=O)Nc1ccc(F)c(C(=O)c2c[nH]c3ncc(-c4ccc(Cl)cc4)cc23)c1F", "note": "[Vemurafenib]", "Cytochrome c release 2.5XCmax": 0}
{"smiles": "CN(C)C/C=C/C(=O)Nc1cc2c(Nc3ccc(F)c(Cl)c3)ncnc2cc1O[C@H]1CCOC1", "note": "[afatinib dimaleate]", "Cytochrome c release 2.5XCmax": 0}
{"system": "isolated rat liver mitochondria", "test": "not given", "details": "5XCmax; positive control alamethicin treated samples"}
{"smiles": "COc1cc2c(Nc3ccc(Br)cc3F)ncnc2cc1OCC1CCN(C)CC1", "note": "[Vandetanib]", "Cytochrome c release 5XCmax": 0}
{"smiles": "CCCS(=O)(=O)Nc1ccc(F)c(C(=O)c2c[nH]c3ncc(-c4ccc(Cl)cc4)cc23)c1F", "note": "[Vemurafenib]", "Cytochrome c release 5XCmax": 0}
{"smiles": "CN(C)C/C=C/C(=O)Nc1cc2c(Nc3ccc(F)c(Cl)c3)ncnc2cc1O[C@H]1CCOC1", "note": "[afatinib dimaleate]", "Cytochrome c release 5XCmax": 0}
{"system": "isolated rat liver mitochondria", "test": "not given", "details": "10XCmax; positive control alamethicin treated samples"}
{"smiles": "COc1cc2c(Nc3ccc(Br)cc3F)ncnc2cc1OCC1CCN(C)CC1", "note": "[Vandetanib]", "Cytochrome c release 10XCmax": 0}
{"smiles": "CCCS(=O)(=O)Nc1ccc(F)c(C(=O)c2c[nH]c3ncc(-c4ccc(Cl)cc4)cc23)c1F", "note": "[Vemurafenib]", "Cytochrome c release 10XCmax": 0}
{"smiles": "CN(C)C/C=C/C(=O)Nc1cc2c(Nc3ccc(F)c(Cl)c3)ncnc2cc1O[C@H]1CCOC1", "note": "[afatinib dimaleate]", "Cytochrome c release 10XCmax": 0}
{"system": "isolated rat liver mitochondria", "test": "not given", "details": "20XCmax; positive control alamethicin treated samples"}
{"smiles": "COc1cc2c(Nc3ccc(Br)cc3F)ncnc2cc1OCC1CCN(C)CC1", "note": "[Vandetanib]", "Cytochrome c release 20XCmax": 0}
{"smiles": "CCCS(=O)(=O)Nc1ccc(F)c(C(=O)c2c[nH]c3ncc(-c4ccc(Cl)cc4)cc23)c1F", "note": "[Vemurafenib]", "Cytochrome c release 20XCmax": 0}
{"smiles": "CN(C)C/C=C/C(=O)Nc1cc2c(Nc3ccc(F)c(Cl)c3)ncnc2cc1O[C@H]1CCOC1", "note": "[afatinib dimaleate]", "Cytochrome c release 20XCmax": 0}
{"system": "isolated rat liver mitochondria", "test": "not given", "details": "30XCmax; positive control alamethicin treated samples"}
{"smiles": "COc1cc2c(Nc3ccc(Br)cc3F)ncnc2cc1OCC1CCN(C)CC1", "note": "[Vandetanib]", "Cytochrome c release 30XCmax": 0}
{"smiles": "CCCS(=O)(=O)Nc1ccc(F)c(C(=O)c2c[nH]c3ncc(-c4ccc(Cl)cc4)cc23)c1F", "note": "[Vemurafenib]", "Cytochrome c release 30XCmax": 0}
{"smiles": "CN(C)C/C=C/C(=O)Nc1cc2c(Nc3ccc(F)c(Cl)c3)ncnc2cc1O[C@H]1CCOC1", "note": "[afatinib dimaleate]", "Cytochrome c release 30XCmax": 0}
{"system": "isolated rat liver mitochondria", "test": "not given", "details": "50XCmax; positive control alamethicin treated samples"}
{"smiles": "COc1cc2c(Nc3ccc(Br)cc3F)ncnc2cc1OCC1CCN(C)CC1", "note": "[Vandetanib]", "Cytochrome c release 50XCmax": 0}
{"smiles": "CCCS(=O)(=O)Nc1ccc(F)c(C(=O)c2c[nH]c3ncc(-c4ccc(Cl)cc4)cc23)c1F", "note": "[Vemurafenib]", "Cytochrome c release 50XCmax": 0}
{"smiles": "CN(C)C/C=C/C(=O)Nc1cc2c(Nc3ccc(F)c(Cl)c3)ncnc2cc1O[C@H]1CCOC1", "note": "[afatinib dimaleate]", "Cytochrome c release 50XCmax": 0}
{"system": "isolated rat liver mitochondria", "test": "not given", "details": "100XCmax; positive control alamethicin treated samples"}
{"smiles": "COc1cc2c(Nc3ccc(Br)cc3F)ncnc2cc1OCC1CCN(C)CC1", "note": "[Vandetanib]", "Cytochrome c release 100XCmax": "18.47±3.80 percentage of the positive control group"}
{"smiles": "CCCS(=O)(=O)Nc1ccc(F)c(C(=O)c2c[nH]c3ncc(-c4ccc(Cl)cc4)cc23)c1F", "note": "[Vemurafenib]", "Cytochrome c release 100XCmax": 0}
{"smiles": "CN(C)C/C=C/C(=O)Nc1cc2c(Nc3ccc(F)c(Cl)c3)ncnc2cc1O[C@H]1CCOC1", "note": "[afatinib dimaleate]", "Cytochrome c release 100XCmax": 0}
{"system": "isolated rat liver mitochondria", "test": "not given", "details": "rat, 30 min, pH 7.4", "units": {"lowest concentration causing cytochrome c release": "fold Cmax"}}
{"smiles": "COc1cc2c(Nc3ccc(Br)cc3F)ncnc2cc1OCC1CCN(C)CC1", "note": "[Vandetanib]", "lowest concentration causing cytochrome c release": 100}
